Measured values as given in patent publication US12053528B2, “Topical formulations comprising polyoxyl lipid or fatty acid and polyalkoxylated alcohol, and uses thereof” (Sun Pharmaceutical Industries Limited, priority 2015, dated 2024).

Experiment: Ocular tissue distribution of RX-10045 nanomicellar formulations (LC-MS/MS)
Assay type: in vivo, New Zealand White Rabbits
Settings: after topical RX-10045 formulations 4x/day for 5 days
Experimental: A study is conducted in rabbits to test the tolerance and ocular tissue distribution of two nanomicellar formulations of active compound against matching placebos (Table 7a and 7b) and balanced saline solution (BSS). Healthy New Zealand female white rabbits (2-3 kg) are used for this study. One drop (approximately 35 μL) of study drug is applied o.d. 4×/day at two hour intervals for 5 days. One drop of BSS is applied to the contralateral eye.
Selected ocular fluids/tissues (aqueous humor, vitreous humor, conjunctiva, cornea, iris-ciliary body, lens, retina/choroid, and sclera) collected from two rabbits each in the active agent (0.15% in HCO-60, 0.1 in HCO-40) treatment groups, and from one rabbit in each of the matching placebo groups, are assayed for active compound by liquid chromatography-tandem mass spectrometry (LC-MS/MS). Warfarin-d5 and 5-HDA are used as internal standards for the analysis of RX-10045 and its active metabolite, RX-10008, respectively, in aqueous humor and vitreous humor. For the other ocular tissues (solid tissues), warfarin-d5 and phenyl acetic acid-d5 (PAA-d5) are used as the internal standards for compound 1001 and RX-10008, respectively. The analytical range for the solid tissues is 0.125-100 ng. The results of the solid tissue analyses are converted to ng/g by correcting for the amount of tissue analyzed.

Concentrations of the compound 1001 ester prodrug in the sclera and conjunctiva: sporadic, relatively low
Hydrolysis to active metabolite RX-10008 in ocular tissues: rapidly hydrolyzed
Structure (SMILES): C#CC[C@@H](O)/C=C/C=C/C#C[C@@H](O)CCCC(=O)OC(C)C [compound 1001]
Compound 1001 in the majority of ocular tissues: either not detected or is below the quantitation limit of the assay
